Tests used:
Assay type in all cases: cell-based
α4β1 integrin = α4β1 integrin (Homo sapiens (Human), UniProt P05556+P13612); assay: VCAM-1/α4β1 integrin binding inhibitory activity evaluation test (Jurkat cell adhesion to VCAM-1/Fc); conditions: Jurkat cells binding to recombinant human VCAM-1/Fc
Method: The ability of test substances to inhibit the binding of a human T-cell line, Jurkat, which is known to express α4β1 integrin, to VCAM-1 was measured. To 96-well microtiter plates, recombinant human VCAM-1/Fc (R&D systems) solution (1 μg/mL) diluted with buffer A (carbonate buffer, pH 9.6) was added at 50 μL/well, followed by incubation at 4° C. overnight. After washing once with PBS, Block Ace (Snow Brand Milk Products Company, Limited) was added at 150 μL/well, followed by incubation at room temperature for 2 hours. After removal, washing was conducted once with PBS. 100 μL of each test substance diluted with a binding buffer (DMEM containing 40 mM HEPES, 0.2% BSA, and 4 mM MnCl2) to various concentrations and 100 μL of the Jurkat cells (2×10^6 cell/mL) were added to the plates coated with VCAM-1/Fc (5×10^5 cells/well), followed by incubation at 30° C. for 15 minutes to 60 minutes. After the cells were bound to each well, unbound cells were removed by washing with PBS. To the plates, buffer C (PBS containing 1.5% Triton X-100) was added at 50 μL/well to lyse the bound Jurkat cells. To 30 μL of the cell lysate, 30 μL of Substrate Buffer (Promega, CytoTox 96 Non-Radioactive Cytotoxicity Assay) was added, and the reaction was allowed to proceed at room temperature in a dark place for 30 minutes. To each well, 30 μL of Stop Solution (Promega, CytoTox 96 Non-Radioactive Cytotoxicity Assay) was added, and the absorbance at 490 nm was measured by using a plate reader. Here, by the obtained absorbance, the activity of the lactate dehydrogenase (LDH) dissolved into the supernatant of each well was detected. In other words, the absorbance was proportional to the number of the Jurkat cells bound to VCAM-1 and remaining on the plate. The test was duplicated. The binding ratios of the cells at various concentrations were determined, with the absorbance of a well containing no test substances taken as 100%. Then, the concentration IC50, at which 50% binding inhibition was achieved, was calculated. […] Note that, among the compounds synthesized in the corresponding Examples, the compounds in the free form (Compounds A-1 to A-39) were used as the test compounds. Hereinafter, the same shall apply.

α4β7 integrin [1] = biological target: T1, α4β7 integrin (Homo sapiens (Human), UniProt P13612+P26010); assay: MAdCAM-1/α4β7 integrin binding inhibitory activity evaluation test in the presence of serum (1); conditions: RPMI-8866 cells binding to mouse MAdCAM-1/Fc, human serum at final concentration of 50%; read-out: α4β7 with serum added, IC50
Method: (§1) The ability of test substances to inhibit the binding of a human B cell line, RPMI-8866, which is known to express α4β7 integrin, to MAdCAM-1 was measured. To 96-well microtiter plates, recombinant mouse MAdCAM-1/Fc (R&D systems) solution (1 μg/mL) diluted with buffer A (carbonate buffer, pH 9.6) was added at 50 μL/well, followed by incubation at 4° C. overnight. After washing once with PBS, Block Ace (Snow Brand Milk Products Company, Limited) was added at 150 μL/well, followed by incubation at room temperature for 2 hours. After removal, washing was conducted once with PBS. 100 μL of each test substance diluted with a binding buffer (DMEM containing 40 mM HEPES, 0.2% BSA, and 4 mM MnCl2) to various concentrations and 100 μL of RPMI-8866 cells (2×10^6 cell/mL) were added to plates coated with MAdCAM-1/Fc (5×10^5 cells/well) with human serum being contained at a final concentration of 50%, followed by incubation at 30° C. for 15 minutes to 60 minutes. After the cells were bound to each well, unbound cells were removed by washing with PBS. To the plates, buffer C (PBS containing 1.5% Triton X-100) was added at 50 μL/well to lyse the bound RPMI-8866 cells. To 30 μL of the cell lysate, 30 μL of Substrate Buffer (Promega, CytoTox 96 Non-Radioactive Cytotoxicity Assay) was added, and the reaction was allowed to proceed at room temperature in a dark place for 30 minutes. To each well, 30 μL of Stop Solution (Promega, CytoTox 96 Non-Radioactive Cytotoxicity Assay) was added, and the absorbance at 490 nm was measured by using a plate reader. Here, by the obtained absorbance, the activity of the lactate dehydrogenase (LDH) dissolved into the supernatant of each well was detected. In other words, the absorbance was proportional to the number of the RPMI-8866 cells bound to MAdCAM-1 and remaining on the plate. The test was duplicated. The binding ratios of the cells at various concentrations were determined, with the absorbance of a well containing no test substance taken as 100%. Then, the concentration IC50, at which 50% binding inhibition was achieved, was calculated.

α4β7 integrin [2] = biological target: T1, α4β7 integrin; assay: MAdCAM-1/α4β7 integrin binding inhibitory activity evaluation test (RPMI-8866 cell adhesion to MAdCAM-1/Fc); conditions: for Selectivity: IC50 in VCAM-1/α4β1 test divided by IC50 in MAdCAM-1/α4β7 test; for IC50: RPMI-8866 cells binding to recombinant mouse MAdCAM-1/Fc, no serum
Method: as §1, with “systems) solution (0.75 μg/mL) diluted” for “systems) solution (1 μg/mL) diluted”, “A (carbonate buffer solution, pH 9.6)” for “A (carbonate buffer, pH 9.6)”, “diluted with binding buffer” for “diluted with a binding buffer”, “added to the plates coated” for “added to plates coated”, “MAdCAM-1/Fc (5×10^5 cells/well), followed by” for “MAdCAM-1/Fc (5×10^5 cells/well) with human serum being contained at a final concentration of 50%, followed by”, “was calculated. […] Note that the selectivity in the table was determined by dividing the IC50 value in VCAM-1/α4β1 Integrin Binding Inhibitory Activity Evaluation Test by the IC50 value in the MAdCAM-1/α4β7 integrin binding inhibitory activity evaluation test.” for “was calculated.”

T1 sequence (P13612 34-1032): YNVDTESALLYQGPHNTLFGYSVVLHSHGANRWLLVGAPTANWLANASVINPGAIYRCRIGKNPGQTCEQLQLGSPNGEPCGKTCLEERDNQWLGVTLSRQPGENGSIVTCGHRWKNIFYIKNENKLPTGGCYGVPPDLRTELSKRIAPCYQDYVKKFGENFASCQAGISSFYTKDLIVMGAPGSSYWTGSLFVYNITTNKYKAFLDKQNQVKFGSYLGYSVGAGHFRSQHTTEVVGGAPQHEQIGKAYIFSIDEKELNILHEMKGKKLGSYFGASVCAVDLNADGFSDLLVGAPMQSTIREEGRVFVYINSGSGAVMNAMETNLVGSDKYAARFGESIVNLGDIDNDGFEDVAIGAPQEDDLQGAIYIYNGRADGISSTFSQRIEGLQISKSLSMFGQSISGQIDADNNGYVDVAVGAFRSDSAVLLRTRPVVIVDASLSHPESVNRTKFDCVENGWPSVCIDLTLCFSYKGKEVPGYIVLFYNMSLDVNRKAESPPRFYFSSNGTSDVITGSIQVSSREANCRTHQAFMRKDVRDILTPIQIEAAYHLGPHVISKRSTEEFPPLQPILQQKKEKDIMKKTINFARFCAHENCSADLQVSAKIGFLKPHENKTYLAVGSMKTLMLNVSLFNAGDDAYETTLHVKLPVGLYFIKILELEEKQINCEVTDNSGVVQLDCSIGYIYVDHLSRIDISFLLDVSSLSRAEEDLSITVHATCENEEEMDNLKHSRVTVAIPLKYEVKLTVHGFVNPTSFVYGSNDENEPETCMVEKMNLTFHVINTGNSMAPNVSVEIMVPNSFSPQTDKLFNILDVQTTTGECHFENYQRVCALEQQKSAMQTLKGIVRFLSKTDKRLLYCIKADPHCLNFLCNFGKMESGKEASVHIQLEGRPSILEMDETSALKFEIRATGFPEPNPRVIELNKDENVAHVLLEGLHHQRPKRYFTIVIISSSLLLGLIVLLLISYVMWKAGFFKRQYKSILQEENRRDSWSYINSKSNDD
T1 sequence (P26010 20-798): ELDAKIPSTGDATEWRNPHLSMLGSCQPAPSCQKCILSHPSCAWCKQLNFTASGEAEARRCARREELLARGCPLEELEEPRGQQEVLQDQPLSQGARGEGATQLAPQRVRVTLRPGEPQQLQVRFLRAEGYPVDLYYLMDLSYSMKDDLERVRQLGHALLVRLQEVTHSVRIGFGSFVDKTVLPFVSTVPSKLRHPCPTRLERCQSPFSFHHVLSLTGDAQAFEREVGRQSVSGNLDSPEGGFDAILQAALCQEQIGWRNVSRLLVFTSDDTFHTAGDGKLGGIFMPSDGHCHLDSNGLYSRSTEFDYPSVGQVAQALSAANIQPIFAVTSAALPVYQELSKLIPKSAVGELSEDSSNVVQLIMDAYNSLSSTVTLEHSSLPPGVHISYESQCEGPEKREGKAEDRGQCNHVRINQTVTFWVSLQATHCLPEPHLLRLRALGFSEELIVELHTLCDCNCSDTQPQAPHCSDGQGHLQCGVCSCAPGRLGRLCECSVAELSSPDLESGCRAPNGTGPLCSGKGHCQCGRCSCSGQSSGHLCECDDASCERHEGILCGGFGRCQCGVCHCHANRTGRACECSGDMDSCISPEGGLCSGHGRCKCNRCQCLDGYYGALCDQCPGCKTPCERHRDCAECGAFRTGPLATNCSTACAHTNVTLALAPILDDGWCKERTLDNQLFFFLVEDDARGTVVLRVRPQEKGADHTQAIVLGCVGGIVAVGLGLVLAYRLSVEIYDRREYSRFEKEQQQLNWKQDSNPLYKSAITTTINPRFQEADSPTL
α4β1 integrin, sequence (P13612 34-1032): as the sequence (P13612 34-1032) above
α4β1 integrin, sequence (P05556 21-798): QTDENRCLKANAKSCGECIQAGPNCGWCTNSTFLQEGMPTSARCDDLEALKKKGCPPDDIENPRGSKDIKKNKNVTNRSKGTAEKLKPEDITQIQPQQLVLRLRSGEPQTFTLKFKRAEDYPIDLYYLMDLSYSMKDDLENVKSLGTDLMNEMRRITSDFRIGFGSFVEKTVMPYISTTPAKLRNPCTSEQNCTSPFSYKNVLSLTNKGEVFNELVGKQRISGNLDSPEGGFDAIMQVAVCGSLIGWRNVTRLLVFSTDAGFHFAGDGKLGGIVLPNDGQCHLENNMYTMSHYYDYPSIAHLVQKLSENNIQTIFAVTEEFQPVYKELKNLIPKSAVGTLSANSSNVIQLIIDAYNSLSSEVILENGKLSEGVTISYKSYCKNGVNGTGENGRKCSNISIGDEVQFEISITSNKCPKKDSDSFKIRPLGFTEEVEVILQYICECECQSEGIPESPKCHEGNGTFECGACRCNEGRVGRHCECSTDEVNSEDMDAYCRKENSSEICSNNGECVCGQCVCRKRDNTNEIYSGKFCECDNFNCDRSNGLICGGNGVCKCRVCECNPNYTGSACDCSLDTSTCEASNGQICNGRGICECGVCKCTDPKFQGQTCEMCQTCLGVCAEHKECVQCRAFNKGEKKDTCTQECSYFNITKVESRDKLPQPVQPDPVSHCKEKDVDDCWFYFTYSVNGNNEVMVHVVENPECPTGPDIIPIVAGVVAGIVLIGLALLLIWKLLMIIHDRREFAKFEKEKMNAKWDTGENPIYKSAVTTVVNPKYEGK

| IC50 (α4β1 integrin) [nM] | IC50 (α4β7 integrin [1]) [nM] | Selectivity (α4β7 integrin [2]) | IC50 (α4β7 integrin [2]) [nM] | Structure (SMILES) |
| --- | --- | --- | --- | --- |
| 210 | 8.7 | 290 | 0.73 | Cn1ccc(=O)n(-c2ccc(C[C@H](NC(=O)c3c(F)cc(NS(=O)(=O)c4ccc(-c5ncccn5)cn4)cc3F)C(=O)O)cc2)c1=O [Example 40, N-(2,6-Difluoro-4-{[(5-pyrimidin-2-yl-pyridin-2-yl)sulfonyl]amino}benzoyl)-4-(3-methyl-2,6-dioxo-3,6-dihydropyrimidin-1(2H)-yl)-L-phenylalanine] |
| 140 | 27 | 170 | 0.83 | Cn1c(=O)n(-c2ccc(C[C@H](NC(=O)c3ccc(NS(=O)(=O)c4ccncc4)cc3F)C(=O)O)cc2)c(=O)c2ccncc21 [Example 39, N-{2-Fluoro-4-[(pyridin-4-yl-sulfonyl)amino]benzoyl}-4-(1-methyl-2,4-dioxo-1,4-dihydropyrido[3,4-d]pyrimidin-3(2H)-yl)-L-phenylalanine] |
| 280 | 24 | 180 | 1.6 | Cn1c(=O)n(-c2ccc(C[C@H](NC(=O)c3c(F)cc(NS(=O)(=O)c4ccc(-c5ccoc5)cc4)cc3F)C(=O)O)cc2)c(=O)c2ccncc21 [Example 66, N-[2,6-Difluoro-4-({[4-(3-furyl)phenyl]sulfonyl}amino)benzoyl]-4-(1-methyl-2,4-dioxo-1,4-dihydropyrido[3,4-d]pyrimidin-3(2H)-yl)-L-phenylalanine] |
| 22 | 0.72 | 220 | 0.098 | Cn1c(=O)n(-c2ccc(C[C@H](NC(=O)c3c(F)cc(NS(=O)(=O)c4ccc(-n5ccnn5)cn4)cc3F)C(=O)O)cc2)c(=O)c2ccncc21 [Example 71, N-[2,6-Difluoro-4-({[5-(1H-1,2,3-triazol-1-yl)pyridin-2-yl]sulfonyl}amino)benzoyl]-4-(1-methyl-2,4-dioxo-1,4-dihydropyrido[3,4-d]pyrimidin-3(2H)-yl)-L-phenylalanine] |
| 400 | 23 | 250 | 1.6 | Cn1ccc(=O)n(-c2ccc(C[C@H](NC(=O)c3c(F)cc(NS(=O)(=O)c4ccc(-n5nccn5)cn4)cc3F)C(=O)O)cc2)c1=O [Example 72, N-[2,6-Difluoro-4-({[5-(2H-1,2,3-triazol-2-yl)pyridin-2-yl]sulfonyl}amino)benzoyl]-4-(3-methyl-2,6-dioxo-3,6-dihydropyrimidin-1(2H)-yl)-L-phenylalanine] |
| 1200 | 5.5 | 1100 | 1.1 | Cn1ccc(=O)n(-c2ccc(C[C@H](NC(=O)c3c(F)cc(NS(=O)(=O)c4ccc(-c5cncnc5)cc4)cc3F)C(=O)O)cc2)c1=O [Example 60, N-(2,6-Difluoro-4-{[(4-pyrimidin-5-yl-phenyl)sulfonyl]amino}benzoyl)-4-(3-methyl-2,6-dioxo-3,6-dihydropyrimidin-1 (2H)-yl)-L-phenylalanine] |
| 150 | 8.7 | 330 | 0.46 | Cn1c(=O)n(-c2ccc(C[C@H](NC(=O)c3c(F)cc(NS(=O)(=O)c4ccc(-n5nccn5)cc4)cc3F)C(=O)O)cc2)c(=O)c2ccncc21 [Example 61, N-[2,6-Difluoro-4-({[4-(2H-1,2,3-triazol-2-yl)phenyl]sulfonyl}amino)benzoyl]-4-(1-methyl-2,4-dioxo-1,4-dihydropyrido[3,4-d]pyrimidin-3(2H)-yl)-L-phenylalanine] |
| 22 | 4.1 | 130 | 0.17 | Cn1c(=O)n(-c2ccc(C[C@H](NC(=O)c3c(F)cc(NS(=O)(=O)c4ccc(-c5nccs5)cn4)cc3F)C(=O)O)cc2)c(=O)c2ccncc21 [Example 59, N-[2,6-Difluoro-4-({[5-(1,3-thiazol-2-yl)pyridin-2-yl]sulfonyl}amino)benzoyl]-4-(1-methyl-2,4-dioxo-1,4-dihydropyrido[3,4-d]pyrimidin-3(2H)-yl)-L-phenylalanine] |
